According to patent publication US9937234B2, “Compositions and methods for using and identifying antimicrobial agents” (priority 2013, dated 2018):
“Also recorded” adds a separate entry of the source.

B1: human CXCL11 (protein, listed as Homo sapiens)
chain: QGFPMFKRGRCLCIGPGVKAVKVADIEKASIMYPSNNCDKIEVIITLKENKGQRCLNPKSKQARLIIKKVERKNF
B2: murine CXCL9 (protein, listed as Mus musculus)
chain: KSAVLFLLGIIFLEQCGVRGTLVIRNARCSCISTSRGTIHYKSLKDLKQFAPSPNCNKTEIIATLKNGDQTCLDPDSANVKKLMKEWE
B3: murine CXCL10 (protein, listed as Mus musculus)
chain: MNPSAAVIFCLILLGLSGTQGIPLARTVRCNCIHIDDGPVRMRAIGKLEIIPASLSCPRVEIIATMKKNDEQRCLNPESKTIKNLMKAFSQKRSKRAP
B4: murine CXCL11 (protein, listed as Mus musculus)
chain: QGFLMFKQGRCLCIGPGMKAVKMAEIEKASVIYPSNGCDKVEVIVTMKAHKRQRCLDPRSKQARLIMQAIEKKNF

How the values were obtained:
[1] = tested on: B. anthracis Sterne strain bacilli; assay type: cell-based, Bacillus anthracis
[2] = tested on: B. anthracis Sterne strain spores; assay type: cell-based, Bacillus anthracis
[3] = tested on: E. coli parent strain (BW25113); test: Antimicrobial assay against E. coli parent strain (cfu/mL); assay type: cell-based, Escherichia coli
[4] = tested on: E. coli transposon mutants Tnx 6 and Tnx 15; test: Secondary screen of E. coli transposon mutants (cfu/mL); assay type: cell-based, Escherichia coli; settings: 6 μg/mL for 2 h
E. coli ΔaceE = test: Antimicrobial assay against E. coli ΔaceE (cfu/mL); assay type: cell-based, Escherichia coli; settings: 2 h
[5] = tested on: E. coli ΔaceE, ΔaceF and ΔlpdA; test: Antimicrobial assay against E. coli PDHc subunit deletion mutants (cfu/mL); assay type: cell-based, Escherichia coli; settings: concentrations as high as 48 μg/mL; 2 h

Molecule	antimicrobial activity against the vegetative form (bacilli) [1]	effect on spore form / spore germination [2]	hierarchy of activity in ability to kill bacilli and block spore germination [1]	hierarchy of direct antimicrobial activity [1]	further results
CCL2 [reference compound]	no antimicrobial activity	no antimicrobial activity			
CCL5 [reference compound]	no antimicrobial activity	no antimicrobial activity			
human CXCL9	directly kill vegetative cells; also recorded: antimicrobial activity against the vegetative form	direct inhibitory effects on spore germination; also recorded: spore germination was blocked or reduced	CXCL10>CXCL9>CXCL11	hCXCL10>hCXCL9>hCXCL11	
human CXCL10	directly kill vegetative cells; also recorded: antimicrobial activity against the vegetative form	direct inhibitory effects on spore germination; also recorded: spore germination was blocked or reduced	CXCL10>CXCL9>CXCL11	hCXCL10>hCXCL9>hCXCL11	EC50 value [1]: 4 to 6 µg/mL; EC50 value, killing effect [1]: 0.33 µg/mL; more potent killing effect, stationary vs exponential phase [1]: > 10 fold; effect on parent strain ([3]; 6 μg/mL): not entirely killed; effect on parent strain ([3]; 10 μg/mL for 2 hours): killed; effect on parent strain ([3]; 36 μg/mL (4.2 μM) and 48 μg/mL (5.6 μM)): killed; susceptibility of parent strain complemented with empty vector or aceE vector ([3]; pBR322 or pUVA411, increasing concentrations, 2 h): remained similarly susceptible; susceptibility of Tnx 6 and Tnx 15 in relation to the parent strain [4]: significantly decreased susceptibility; susceptibility of ΔaceE (E. coli ΔaceE; increasing concentrations, compared to parent strain): significantly less susceptible; also recorded: exhibits resistance; also recorded: resistant; susceptibility of ΔaceE complemented with aceE (E. coli ΔaceE; plasmid pUVA411 (aceE)): restored susceptibility; also recorded: restores the parent strain susceptibility phenotype; susceptibility of ΔaceE, ΔaceF and ΔlpdA deletion mutants [5]: equally resistant
B1	directly kill vegetative cells; also recorded: antimicrobial activity against the vegetative form	direct inhibitory effects on spore germination; also recorded: spore germination was blocked or reduced	CXCL10>CXCL9>CXCL11	hCXCL10>hCXCL9>hCXCL11	
B2			CXCL9>CXCL10>CXCL11	mCXCL9>mCXCL10>mCXCL11	
B3			CXCL9>CXCL10>CXCL11	mCXCL9>mCXCL10>mCXCL11	
B4			CXCL9>CXCL10>CXCL11	mCXCL9>mCXCL10>mCXCL11	
